Source: patent US8673585B2, “Biochemical serum marker” (Biouniversa S.r.l., priority 2009, dated 2014)

Assays:
J774 cells [1] = assay: Macrophage activation assay: production of nitrites in the culture medium (Griess reagent); type: cell-based, murine
Protocol: The recombinant BAG3 protein was used for macrophage activation assays, in order to determine the possible role on blood cells of the protein released in the serum. For this purpose, the murine monocyte J774 cell line was treated with different concentrations of the recombinant BAG3 protein, using a pro-inflammatory agent such as lipopolysaccharide (LPS) as a positive control. J774 cells were plated at 60% confluence and incubated for 24 h with the recombinant BAG3 protein at concentrations of 250, 500 ng/ml and 1 mg/ml, alone or in combination with LPS at a concentration of 10 ng/ml.
Moreover the production of nitrites in the culture medium, which correlates with monocyte activation, was verified with the Griess reagent (1% sulfanilamide, 0.1% naftilethylenediamine, 5% phosphoric acid) and measured in a Beckman DU-62 spectrophotometer at 550 nM (FIG. 9b).

J774 cells [2] = assay: Binding of FITC-conjugated recombinant BAG3 to the cell surface (confocal microscopy); type: cell-based, murine; conditions: FITC-conjugated protein added to the culture medium for 1 hour
Protocol: The BAG3 recombinant protein was then conjugated to FITC using the FluoroTag FITC Conjugation Kit (Sigma). Equal amounts of BSA-FITC (negative control) and rBAG3-FITC were added to the culture medium for 1 hour. Cells were then fixed with a solution of 3.7% formaldehyde and analyzed by a Zeiss LSM confocal microscope.
Binding of the BAG3 protein to the surface of J774 cells was confirmed by use of the recombinant protein conjugated with a fluorophore. BAG3 binding is specific because it is not observed when other proteins, for example BSA, are used instead of BAG3.

Row | Substance | production of nitrites compared to the control (untreated cells) (J774 cells [1]; 24 h, 500 ng/ml, p<0.001, FIG. 9b) | dose dependence of activity (iNOS expression and nitrites) (J774 cells [1]; 24 h, 250, 500 ng/ml and 1 mg/ml, FIGS. 9a and b) | binding to the surface of J774 cells (J774 cells [2])
1 | recombinant BAG3 protein: Recombinant human BAG3 protein expressed in E. coli, His-tagged, purified by affinity chromatography; FITC-conjugated for the binding test | increased three-fold | dose-dependent | confirmed
2 | bovine serum albumin [BSA, reference compound] |  |  | not observed
